In patent US20170253607A1, “LONG-ACTING HIV PROTEASE INHIBITOR” (Shionogi & Co., Ltd., priority 2014, published 2017):

Key:
HIV-1 PR = HIV-1 PR (Human immunodeficiency virus type 1 group M subtype B, UniProt P04585); test: HIV-protease inhibitory activity assay (FRET peptide substrate); type: biochemical; conditions: Test Example 1
How it was run: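 Fluorescence recovery at ex 485/em 535 nm reports cleavage of a quenched FRET peptide (2 μmol/L final) by 0.83 ng enzyme over 60 minutes at room temperature. Buffer was NaAc pH 4.8 with NaCl, EDTA, DTT and Tween 20. IC50 values came from four-parameter logistic regression of % inhibition.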

[1] = Protein binding test (equilibrium dialysis, unbound ratio fu in serum); type: in vitro ADME; conditions: rat serum, equilibrium dialysis 24 hours, 37° C., 2 μg/mL
How it was run: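 Compound at 2 μg/mL in serum was dialysed against PBS for 24 hours at 37° C. Both sides were quantified by LC/MS/MS, and fu was taken as the PBS concentration divided by the serum concentration.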

[2] = Evaluation of total body clearance (CLtot), intravenous administration; type: in vivo, Sprague-Dawley (SD); conditions: rat (SD), intravenous administration 0.5-10 mg/kg; CLtot = dose/AUC
How it was run: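 Compounds given as a single tail-vein injection at 0.5-10 mg/kg (n=2-3), dose varying by compound. Plasma sampled at scheduled times and measured by LC/MS/MS; CLtot derived as dose divided by AUC from pharmacokinetic analysis.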

**Q.** Which IC50 (HIV-1 PR) does the source give for `COc1ccc(S(=O)(=O)N(CC2CCCC2)CC(O)C(Cc2ccc(OCc3nc(C)sc3-c3sc4c(c3C(=O)O)CC(C)(C)CC4)cc2)NC(=O)OC2COC3(C)OCCC23)cc1` (stereo not drawn) [Compound I-248] here?
**A.** Its IC50 is 2.26 nM.

**Q.** And the rat_fu [1]?
**A.** The rat_fu was less than 0.1%.

**Q.** And the rat_CLt [2]?
**A.** Its rat_CLt is 2.47 mL/min/kg.

**Q.** For `COc1ccc(S(=O)(=O)N(CC(C)C)C[C@@H](O)[C@H](Cc2ccc(NCc3ccccc3C(=O)Nc3sc4c(c3C(=O)O)CC(C)(C)CC4)cc2)NC(=O)O[C@H]2CO[C@@]3(C)OCC[C@@H]23)cc1` [Compound I-396], which IC50 (HIV-1 PR) is on record?
**A.** Its IC50 is 2.76 nM.

**Q.** What about the rat_fu [1] of the same compound?
**A.** Its rat_fu is less than 0.1%.

**Q.** And the rat_CLt [2]?
**A.** The rat_CLt was 0.0572 mL/min/kg.

**Q.** For `COc1ccc(S(=O)(=O)N(CC(C)C)CC(O)C(Cc2ccc(OCc3ccccc3-c3sc4c(c3C(=O)O)CC(C)(C)CC4(C)C)cc2)NC(=O)OC2COC3(C)OCCC23)cc1` (stereo not drawn) [Compound I-113], which IC50 (HIV-1 PR) is on record?
**A.** The IC50 was 1.84 nM.

**Q.** And the rat_fu [1]?
**A.** Its rat_fu is less than 0.1%.

**Q.** What about the rat_CLt [2] of the same compound?
**A.** The rat_CLt was 1.18 mL/min/kg.

**Q.** Which results are given for `COc1ccc(S(=O)(=O)N(CC(C)C)CC(O)C(Cc2ccc(NCc3ccc4ccccc4c3-c3sc4c(c3C(=O)O)CC(C)(C)CC4)cc2)NC(=O)OC2COC3OCCC23)cc1` (stereo not drawn) [Compound I-851]?
**A.** IC50 (HIV-1 PR): 2.57 nM; rat_fu [1]: <0.1%; rat_CLt [2]: 0.298 mL/min/kg
